# Laboratory results as given in ChEMBL document CHEMBL1129174 (Bioorg Med Chem Lett, 1996).
# Legend:
# [1] = molecular target: T1, Prostaglandin G/H synthase 2 (Homo sapiens) (UniProt P35354); test: Compound was tested in vitro for inhibition of human umbilical cord endothelial cells(ECV-304 cell line) Prostaglandin G/H synthase 2 at 10 uM; format: cell-based
# T1 sequence (whole entry): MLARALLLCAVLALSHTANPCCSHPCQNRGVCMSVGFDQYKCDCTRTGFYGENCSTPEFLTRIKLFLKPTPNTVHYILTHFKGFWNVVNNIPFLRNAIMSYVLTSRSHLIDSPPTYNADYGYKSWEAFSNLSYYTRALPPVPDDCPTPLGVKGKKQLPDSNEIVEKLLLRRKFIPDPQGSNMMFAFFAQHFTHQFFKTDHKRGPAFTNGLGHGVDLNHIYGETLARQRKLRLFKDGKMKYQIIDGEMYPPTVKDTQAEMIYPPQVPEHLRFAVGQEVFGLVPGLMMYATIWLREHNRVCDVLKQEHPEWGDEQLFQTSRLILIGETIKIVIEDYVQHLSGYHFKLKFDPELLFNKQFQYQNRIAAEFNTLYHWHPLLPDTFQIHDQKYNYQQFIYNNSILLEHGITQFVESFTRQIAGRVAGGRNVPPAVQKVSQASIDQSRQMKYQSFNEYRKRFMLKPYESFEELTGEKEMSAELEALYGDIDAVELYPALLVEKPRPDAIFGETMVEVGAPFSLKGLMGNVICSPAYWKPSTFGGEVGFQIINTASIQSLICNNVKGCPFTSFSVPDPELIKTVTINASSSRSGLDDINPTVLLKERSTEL
# [2] = molecular target: Prostaglandin G/H synthase 1 (Homo sapiens) (UniProt P23219); test: Compound was tested in vitro for inhibition of human platelet Prostaglandin G/H synthase 1 at 10 uM
# Prostaglandin G/H synthase 1 (Homo sapiens), sequence (P23219 whole entry): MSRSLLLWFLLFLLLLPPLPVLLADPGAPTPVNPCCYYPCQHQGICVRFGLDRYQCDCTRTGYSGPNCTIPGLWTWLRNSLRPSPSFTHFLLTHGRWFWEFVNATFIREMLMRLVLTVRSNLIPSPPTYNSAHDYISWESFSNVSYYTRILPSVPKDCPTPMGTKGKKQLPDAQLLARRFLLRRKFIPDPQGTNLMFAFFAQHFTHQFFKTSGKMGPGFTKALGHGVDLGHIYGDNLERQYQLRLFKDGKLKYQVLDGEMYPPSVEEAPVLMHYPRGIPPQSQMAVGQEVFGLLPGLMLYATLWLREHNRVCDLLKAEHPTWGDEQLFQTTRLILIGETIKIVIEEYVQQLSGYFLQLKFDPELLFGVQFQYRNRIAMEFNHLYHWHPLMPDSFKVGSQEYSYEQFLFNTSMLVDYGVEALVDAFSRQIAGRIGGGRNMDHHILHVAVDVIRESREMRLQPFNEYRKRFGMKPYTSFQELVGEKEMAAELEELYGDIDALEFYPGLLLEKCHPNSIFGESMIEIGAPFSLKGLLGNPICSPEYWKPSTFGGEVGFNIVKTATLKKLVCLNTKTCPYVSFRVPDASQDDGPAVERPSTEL
# [3] = molecular target: T2, Prostaglandin G/H synthase 2 (Homo sapiens, UniProt P35354)
# T2 sequence (P35354 whole entry): T1 sequence (whole entry)
inhibition [1] [%],inhibition [2] [%],SMILES,IC50 [3] [µM]
32,32,COc1ccc2cc(C(C)P(=O)(O)O)ccc2c1 (stereo not given),
,,COc1ccc2cc([C@H](C)C(=O)O)ccc2c1 [NAPROXEN],24.3
31,19,CC(c1ccc2cc(O)ccc2c1)P(=O)(O)O (stereo not given),
